For 13 compounds, EPSA results are on record in patent US20260022143A1, “Cyclic Peptide Inhibitors of IL-23” (JANSSEN PHARMACEUTICA NV, priority 2022, published 2026).

Counter-ions that a name gives are not always drawn. Starred links: 1 amine or outer side, 2 acyl side, 3 side chain; linkers in the order of their positions; H or OH if unused. Positions of bridges follow the written chain, without caps; N, C: chain ends. Non-standard residues stand in square brackets, D forms with d. Residues, ends and D or L forms follow the SMILES beside them. Groups on a side chain read outwards from the residue. *: point of attachment. Me3N+CH2CH2(OCH2CH2)4CO = C[N+](C)(C)CCOCCOCCOCCOCCC(=O)*; Trp(7-CF3) = N[C@@H](Cc1c[nH]c2c(C(F)(F)F)cccc12)C(=O)O; Trp(7-Me) = Cc1cccc2c(C[C@H](N)C(=O)O)c[nH]c12; 3Oxa8azabicyclo(3.2.1)octane = C1CC2COCC1N2*; Hexanoyl(6-NMe3+) = C[N+](C)(C)CCCCCC(=O)*; Lys(Me3) = C[N+](C)(C)CCCC[C@H](N)C(=O)O; 2Nal = N[C@@H](Cc1ccc2ccccc2c1)C(=O)O; AEF = NCCOc1ccc(C[C@H](N)C(=O)O)cc1; X19 = C[N+](C)(C)C[C@@H](CC(=O)O)N*; X10 = C[N+](C)(C)C[C@H](CC(=O)O)N*; dLys(Me) = CNCCCC[C@@H](N)C(=O)O; 3Pal = N[C@@H](Cc1cccnc1)C(=O)O; Lys(Me) = CNCCCC[C@H](N)C(=O)O; NHCH2CH2OCH2CH2OMe = COCCOCCN*; Pen = CC(C)(S)[C@H](N)C(=O)O; Suc = O=C(CCC(=O)[*:2])[*:1]; Thp = NC1(C(=O)O)CCOCC1; Dap = NC[C@H](N)C(=O)O; Me2NCH2CH2 = CN(C)CC*; Tfa = O=C(C(F)(F)F)*; Sar = CNCC(=O)O

The data set is described as follows: Exposed Polar Surface Area (EPSA). In kind it is physicochemical. Particulars: SFC on Chirex 3014 column; sample 1 mM DMSO stock; read-out: EPSA. In short, it runs like this:
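SFC retention on a Chirex 3014 (S-valine/(R)-1-(α-naphthyl)ethylamine) column at 35 °C, 4 mL/min, 14 MPa outlet, 5–60% methanol/20 mM ammonium formate gradient in CO2. Retention times converted to EPSA (Å²) via linear calibration with 8 standards; samples from 1 mM DMSO stock, run in duplicate.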
Turning to `CC(=O)N(C)CCCC[C@@H]1NC(=O)[C@H](Cc2c[nH]c3c(C(F)(F)F)cccc23)NC(=O)[C@H]([C@@H](C)O)NC(=O)[C@H](CC(=O)N(C)C)NC(=O)[C@@H](NC(=O)C(F)(F)F)C(C)(C)SSC(C)(C)[C@@H](C(=O)N[C@@H](Cc2ccc(OCCN)cc2)C(=O)N[C@@H](Cc2ccc3ccccc3c2)C(=O)NC2(C(=O)N[C@@H](CCCCN(C)C(C)=O)C(=O)N[C@@H](CC(N)=O)C(=O)N[C@@H](Cc3cccnc3)C(=O)N(C)CC(=O)N(C)C)CCOCC2)NC1=O` [compound 94, CF3CO-Pen(3)-N(N(Me)2)-T-7CF3W-K(NMeAc)-Pen(3)-AEF-2Nal-THP-K(NMeAc)-N-3Pya-Sar-CON(Me)2] (Tfa-[Pen]D(NMe2)T[Trp(7-CF3)][Lys(Me)](Ac)[Pen][AEF][2Nal][Thp][Lys(Me)](Ac)N[3Pal][Sar]-NMe2; disulfide 1-6), the EPSA worked out at 142 A^2.

In the case of `CC(=O)N(C)CCCC[C@@H]1NC(=O)[C@H](Cc2c[nH]c3c(C(F)(F)F)cccc23)NC(=O)[C@H]([C@@H](C)O)NC(=O)[C@H](CC(=O)N(C)C)NC(=O)[C@@H](NC(=O)C(F)(F)F)C(C)(C)SSC(C)(C)[C@@H](C(=O)N[C@@H](Cc2ccc(OCCN(C)C)cc2)C(=O)N[C@@H](Cc2ccc3ccccc3c2)C(=O)NC2(C(=O)N[C@@H](CCCCN(C)C(C)=O)C(=O)N[C@@H](CC(N)=O)C(=O)N[C@@H](Cc3cccnc3)C(=O)N(C)CC(=O)N(C)C)CCOCC2)NC1=O` [compound 95, CF3CO-Pen(3)-N(N(Me)2)-T-7CF3W-K(NMeAc)-Pen(3)-AEF(N(Me)2)-2Nal-THP-K(NMeAc)-N-3Pya-Sar-CON(Me)2] (Tfa-[Pen]D(NMe2)T[Trp(7-CF3)][Lys(Me)](Ac)[Pen]Y(Me2NCH2CH2)[2Nal][Thp][Lys(Me)](Ac)N[3Pal][Sar]-NMe2; disulfide 1-6 (inferred)), the EPSA turned out to be 131 A^2. Under `CC(=O)NCCCC[C@@H]1NC(=O)[C@H](Cc2c[nH]c3c(C)cccc23)NC(=O)[C@H]([C@@H](C)O)NC(=O)[C@H](CC(N)=O)NC(=O)[C@@H](NC(=O)CCCCC[N+](C)(C)C)C(C)(C)SSC(C)(C)[C@@H](C(=O)N[C@@H](Cc2ccc(OCCN)cc2)C(=O)N[C@@H](Cc2ccc3ccccc3c2)C(=O)NC2(C(=O)N[C@@H](CNC(C)=O)C(=O)N[C@@H](CC(N)=O)C(=O)N[C@@H](Cc3cccnc3)C(=O)N(C)CC(N)=O)CCOCC2)NC1=O` [compound 99] ({Hexanoyl(6-NMe3+)}-[Pen]NT[Trp(7-Me)]K(Ac)[Pen][AEF][2Nal][Thp][Dap](Ac)N[3Pal][Sar]-NH2; disulfide 1-6 (inferred)) stands 164 A^2.

Turning to `CC(=O)NCCCC[C@@H]1NC(=O)[C@H](Cc2c[nH]c3c(C)cccc23)NC(=O)[C@H]([C@@H](C)O)NC(=O)[C@H](CC(N)=O)NC(=O)[C@@H](NC(C)=O)C(C)(C)SSC(C)(C)[C@@H](C(=O)N[C@@H](Cc2ccc(OCCN(C)C)cc2)C(=O)N[C@@H](Cc2ccc3ccccc3c2)C(=O)NC2(C(=O)N[C@@H](CNC(C)=O)C(=O)N[C@@H](CC(N)=O)C(=O)N[C@@H](Cc3cccnc3)C(=O)N(C)CC(N)=O)CCOCC2)NC1=O` [compound 102] (Ac-[Pen]NT[Trp(7-Me)]K(Ac)[Pen]Y(Me2NCH2CH2)[2Nal][Thp][Dap](Ac)N[3Pal][Sar]-NH2; disulfide 1-6), the EPSA worked out at 156 A^2.

For `CC(=O)NCCCC[C@@H]1NC(=O)[C@H](Cc2c[nH]c3c(C)cccc23)NC(=O)[C@H]([C@@H](C)O)NC(=O)[C@H](CC(N)=O)NC(=O)[C@@H](NC(=O)[C@@H](CCCCNC(=O)CCC(=O)N[C@H](CC(=O)O)C[N+](C)(C)C)NC(C)=O)C(C)(C)SSC(C)(C)[C@@H](C(=O)N[C@@H](Cc2ccc(OCCN)cc2)C(=O)N[C@@H](Cc2ccc3ccccc3c2)C(=O)NC2(C(=O)N[C@@H](CCCCNC(C)=O)C(=O)N[C@@H](CC(N)=O)C(=O)N[C@@H](Cc3cccnc3)C(=O)N(C)CC(N)=O)CCOCC2)NC1=O` [compound 107] (Ac-[dK]([Suc-X19])[Pen]NT[Trp(7-Me)]K(Ac)[Pen][AEF][2Nal][Thp]K(Ac)N[3Pal][Sar]-NH2; disulfide 2-7), the EPSA came to 173 A^2.

On to `CC(=O)NCCCC[C@@H]1NC(=O)[C@H](Cc2c[nH]c3c(C)cccc23)NC(=O)[C@H]([C@@H](C)O)NC(=O)[C@H](CC(N)=O)NC(=O)[C@@H](NC(=O)[C@@H](CCCCNC(=O)CCC(=O)N[C@@H](CC(=O)O)C[N+](C)(C)C)NC(C)=O)C(C)(C)SSC(C)(C)[C@@H](C(=O)N[C@@H](Cc2ccc(OCCN)cc2)C(=O)N[C@@H](Cc2ccc3ccccc3c2)C(=O)NC2(C(=O)N[C@@H](CCCCNC(C)=O)C(=O)N[C@@H](CC(N)=O)C(=O)N[C@@H](Cc3cccnc3)C(=O)N(C)CC(N)=O)CCOCC2)NC1=O` [compound 108] (Ac-[dK]([Suc-X10])[Pen]NT[Trp(7-Me)]K(Ac)[Pen][AEF][2Nal][Thp]K(Ac)N[3Pal][Sar]-NH2; disulfide 2-7), for which the EPSA came to 173 A^2. Under `CC(=O)NCCCC[C@@H]1NC(=O)[C@H](Cc2c[nH]c3c(C)cccc23)NC(=O)[C@H]([C@@H](C)O)NC(=O)[C@H](CC(N)=O)NC(=O)[C@@H](NC(C)=O)C(C)(C)SSC(C)(C)[C@@H](C(=O)N[C@@H](Cc2ccc(OCCN)cc2)C(=O)N[C@@H](Cc2ccc3ccccc3c2)C(=O)NC2(C(=O)N[C@@H](CCCCNC(=O)CCC(=O)N[C@H](CC(=O)O)C[N+](C)(C)C)C(=O)N[C@@H](CC(N)=O)C(=O)N[C@@H](Cc3cccnc3)C(=O)N(C)CC(N)=O)CCOCC2)NC1=O` [compound 109] (Ac-[Pen]NT[Trp(7-Me)]K(Ac)[Pen][AEF][2Nal][Thp]K([Suc-X19])N[3Pal][Sar]-NH2; disulfide 1-6) stands 171 A^2; under `CC(=O)NCCCC[C@@H]1NC(=O)[C@H](Cc2c[nH]c3c(C)cccc23)NC(=O)[C@H]([C@@H](C)O)NC(=O)[C@H](CC(N)=O)NC(=O)[C@@H](NC(C)=O)C(C)(C)SSC(C)(C)[C@@H](C(=O)N[C@@H](Cc2ccc(OCCN)cc2)C(=O)N[C@@H](Cc2ccc3ccccc3c2)C(=O)NC2(C(=O)N[C@@H](CCCCNC(=O)CCC(=O)N[C@@H](CC(=O)O)C[N+](C)(C)C)C(=O)N[C@@H](CC(N)=O)C(=O)N[C@@H](Cc3cccnc3)C(=O)N(C)CC(N)=O)CCOCC2)NC1=O` [compound 110] (Ac-[Pen]NT[Trp(7-Me)]K(Ac)[Pen][AEF][2Nal][Thp]K([Suc-X10])N[3Pal][Sar]-NH2; disulfide 1-6), 171 A^2. With `CC(=O)NCCCC[C@@H]1NC(=O)[C@H](Cc2c[nH]c3c(C)cccc23)NC(=O)[C@H]([C@@H](C)O)NC(=O)[C@H](CC(N)=O)NC(=O)[C@@H](NC(C)=O)C(C)(C)SSC(C)(C)[C@@H](C(=O)N[C@@H](Cc2ccc(OCCN)cc2)C(=O)N[C@@H](Cc2ccc3ccccc3c2)C(=O)NC2(C(=O)N[C@H](CCCCN(C)C(=O)CCOCCOCCOCCOCC[N+](C)(C)C)C(=O)N[C@@H](CC(N)=O)C(=O)N[C@@H](Cc3cccnc3)C(=O)N(C)CC(N)=O)CCOCC2)NC1=O` [compound 111] (Ac-[Pen]NT[Trp(7-Me)]K(Ac)[Pen][AEF][2Nal][Thp][dLys(Me)](Me3N+CH2CH2(OCH2CH2)4CO)N[3Pal][Sar]-NH2; disulfide 1-6), the EPSA was 153 A^2. Under `CC(=O)NCCCC[C@@H]1NC(=O)[C@H](Cc2c[nH]c3c(C)cccc23)NC(=O)[C@H]([C@@H](C)O)NC(=O)[C@H](CC(N)=O)NC(=O)[C@@H](NC(C)=O)C(C)(C)SSC(C)(C)[C@@H](C(=O)N[C@@H](Cc2ccc(OCCN)cc2)C(=O)N[C@@H](Cc2ccc3ccccc3c2)C(=O)NC2(C(=O)N[C@@H](CCC(=O)O)C(=O)N[C@@H](CC(N)=O)C(=O)N[C@@H](Cc3cccnc3)C(=O)N(C)CC(=O)N3C4CCC3COC4)CCOCC2)NC1=O` [compound 115] (Ac-[Pen]NT[Trp(7-Me)]K(Ac)[Pen][AEF][2Nal][Thp]EN[3Pal][Sar]-{3Oxa8azabicyclo(3.2.1)octane}; disulfide 1-6) stands 171 A^2. Under `COCCOCCNC(=O)CN(C)C(=O)[C@H](Cc1cccnc1)NC(=O)[C@H](CC(N)=O)NC(=O)[C@H](CCC(=O)O)NC(=O)C1(NC(=O)[C@H](Cc2ccc3ccccc3c2)NC(=O)[C@H](Cc2ccc(OCCN)cc2)NC(=O)[C@H]2NC(=O)[C@H](CCCCNC(C)=O)NC(=O)[C@H](Cc3c[nH]c4c(C)cccc34)NC(=O)[C@H]([C@@H](C)O)NC(=O)[C@H](CC(N)=O)NC(=O)[C@@H](NC(C)=O)C(C)(C)SSC2(C)C)CCOCC1` [compound 116] (Ac-[Pen]NT[Trp(7-Me)]K(Ac)[Pen][AEF][2Nal][Thp]EN[3Pal][Sar]-NHCH2CH2OCH2CH2OMe; disulfide 1-6 (inferred)) stands 170 A^2. In the case of `CC(=O)N[C@@H]1C(=O)N[C@@H](CC(=O)N(C)C)C(=O)N[C@@H]([C@@H](C)O)C(=O)N[C@@H](Cc2c[nH]c3c(C)cccc23)C(=O)N[C@@H](CCCC[N+](C)(C)C)C(=O)N[C@H](C(=O)N[C@@H](Cc2ccc(OCCN(C)C)cc2)C(=O)N[C@@H](Cc2ccc3ccccc3c2)C(=O)NC2(C(=O)N[C@@H](CCCC[N+](C)(C)C)C(=O)N[C@@H](CC(N)=O)C(=O)N[C@@H](Cc3cccnc3)C(=O)N(C)CC(=O)N(C)C)CCOCC2)C(C)(C)SSC1(C)C` [compound 117, MeCO-Pen(3)-N(N(Me)2)-T-7MeW-K(Me)3-Pen(3)-AEF(N(Me)2)-2Nal-THP-K(Me)3-N-3Pya-Sar-CON(Me)2] (Ac-[Pen]D(NMe2)T[Trp(7-Me)][Lys(Me3)][Pen]Y(Me2NCH2CH2)[2Nal][Thp][Lys(Me3)]N[3Pal][Sar]-NMe2; disulfide 1-6), the EPSA is 139 A^2. In the case of `CC(=O)N[C@@H]1C(=O)N[C@@H](CC(=O)N(C)C)C(=O)N[C@@H]([C@@H](C)O)C(=O)N[C@@H](Cc2c[nH]c3c(C)cccc23)C(=O)N[C@@H](CCC(=O)N(C)C)C(=O)N[C@H](C(=O)N[C@@H](Cc2ccc(OCCN(C)C)cc2)C(=O)N[C@@H](Cc2ccc3ccccc3c2)C(=O)NC2(C(=O)N[C@@H](CCC(=O)O)C(=O)N[C@@H](CC(N)=O)C(=O)N[C@@H](Cc3cccnc3)C(=O)N(C)CC(=O)N(C)C)CCOCC2)C(C)(C)SSC1(C)C` [compound 120, MeCO-Pen(3)-N(N(Me)2)-T-7MeW-Q(N(Me)2)-Pen(3)-AEF(N(Me)2)-2Nal-THP-E-N-3Pya-Sar-CON(Me)2] (Ac-[Pen]D(NMe2)T[Trp(7-Me)]E(NMe2)[Pen]Y(Me2NCH2CH2)[2Nal][Thp]EN[3Pal][Sar]-NMe2; disulfide 1-6) it was 153 A^2.
